Measured values taken from article PMC6253949, “The Inhibitory Action of Kohamaic Acid A Derivatives on Mammalian DNA Polymerase β” (Molecules, 2008).

Biological target: T1, Human DNA polymerase γ (Homo sapiens, UniProt P54098)
T1 construct: His tag; made in house; host or cells: baculovirus expression system (insect cells)
T1 sequence (P54098 1-1239): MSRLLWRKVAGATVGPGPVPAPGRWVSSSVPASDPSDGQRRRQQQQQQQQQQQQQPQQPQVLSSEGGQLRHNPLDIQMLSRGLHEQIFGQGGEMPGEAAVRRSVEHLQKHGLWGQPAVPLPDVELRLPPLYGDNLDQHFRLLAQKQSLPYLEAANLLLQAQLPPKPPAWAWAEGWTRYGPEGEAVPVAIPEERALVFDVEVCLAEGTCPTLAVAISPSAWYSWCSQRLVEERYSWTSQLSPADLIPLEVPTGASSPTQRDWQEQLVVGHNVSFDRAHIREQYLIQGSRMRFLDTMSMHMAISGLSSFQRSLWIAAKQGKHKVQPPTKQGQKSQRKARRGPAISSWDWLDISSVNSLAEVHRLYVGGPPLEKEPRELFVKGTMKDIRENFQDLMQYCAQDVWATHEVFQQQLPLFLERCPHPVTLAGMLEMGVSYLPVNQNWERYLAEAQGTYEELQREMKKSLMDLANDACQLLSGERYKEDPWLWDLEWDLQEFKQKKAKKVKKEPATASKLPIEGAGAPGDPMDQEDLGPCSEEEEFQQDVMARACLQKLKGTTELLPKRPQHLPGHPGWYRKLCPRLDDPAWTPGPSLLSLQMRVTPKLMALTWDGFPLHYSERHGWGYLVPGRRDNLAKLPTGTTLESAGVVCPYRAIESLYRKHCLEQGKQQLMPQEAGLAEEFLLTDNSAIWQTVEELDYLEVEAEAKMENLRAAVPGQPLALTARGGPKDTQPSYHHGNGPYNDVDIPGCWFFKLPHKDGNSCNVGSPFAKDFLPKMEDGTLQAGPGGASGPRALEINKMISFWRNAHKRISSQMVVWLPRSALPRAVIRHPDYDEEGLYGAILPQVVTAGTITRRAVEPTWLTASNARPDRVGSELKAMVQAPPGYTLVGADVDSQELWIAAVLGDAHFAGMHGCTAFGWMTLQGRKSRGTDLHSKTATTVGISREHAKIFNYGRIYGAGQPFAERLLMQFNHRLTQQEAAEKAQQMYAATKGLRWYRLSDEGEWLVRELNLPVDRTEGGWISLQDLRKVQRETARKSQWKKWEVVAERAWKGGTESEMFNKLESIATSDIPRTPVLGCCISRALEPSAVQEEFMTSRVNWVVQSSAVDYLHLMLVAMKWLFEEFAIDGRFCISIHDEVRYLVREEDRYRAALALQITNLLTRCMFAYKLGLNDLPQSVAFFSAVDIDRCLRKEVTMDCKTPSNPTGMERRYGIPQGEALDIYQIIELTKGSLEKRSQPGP
Assay: DNA polymerase assay, human pol γ
Format: biochemical
From the text: Pol α was purified from calf thymus by immuno-affinity column chromatography as described by Tamai et al.. Recombinant rat pol β was purified from E. coli JMpβ5 as described by Date et al.. The human pol γ catalytic gene was cloned into pFastBac. Histidine-tagged enzyme was expressed using the BAC-TO-BAC HT Baculovirus Expression System according to the supplier's manual (LIFE TECHNOLOGIES, MD, USA) and purified using ProBoundresin (Invitrogen Japan, Tokyo, Japan). Human pols δ and ε were purified by the nuclear fractionation of human peripheral blood cancer cells (Molt-4) using the second subunit of pols δ and ε-conjugated affinity column chromatography, respectively. Recombinant human pols η and ι tagged with His6 at their C-terminal were expressed in SF9 insect cells using the baculovirus expression system, and were purified as described previously. A truncated form of pol κ (i.e., hDINB1DC) with 6 x His-tags attached at the C-terminal was overproduced using the BAC-to-BAC Baculovirus Expression System kit (GIBCO BRL, MD, USA) and purified as described previously. […]
For pols, poly(dA)/oligo(dT)12-18 (A/T = 2/1) and dTTP were used as the DNA template-primer and nucleotide (i.e., dNTP) substrate, respectively. […] Activity without the inhibitor was considered 100%, and the remaining activity at each concentration of the inhibitor was determined relative to this value. […]

`CC1=CC[C@H]2C(C)(C)CCC[C@]2(C)[C@H]1CCCCCCCCCCCCCCCCC(=O)O` (relative stereo) [compound 11, (1S*,4aS*,8aS*)-17-(1,4,4a,5,6,7,8,8a-octahydro-2,5,5,8a-tetramethylnaphthalen-1-yl)heptadecanoic acid] showed an IC50 of 8.76 ± 0.44 µM.
